Results taken from a melting point compilation (Tetko et al.; mined from patent text by program, amines drawn as free bases though some values may be those of a salt).

melting point [°C]	Compound
98 to 101	CCCc1c(OCC(O)COc2cccc(NC(=O)C(=O)OCC)c2)ccc(C(C)=O)c1O (stereo unspecified)
80 to 81	COc1c(Cl)cc(N)cc1Cl
120 to 122	CCOC(=O)c1cc([N+](=O)[O-])c(N)nc1C(=O)OCC
85	COC(=O)c1cc(C=O)cc([N+](=O)[O-])c1
213 to 216	COc1ccc2c(c1)CCC1CCNC(=O)C(CC(=O)NC(C)C)=C21 (stereo unspecified)
94 to 95	Cc1cccc(COc2cccc(OCc3ccc4cc(F)c(F)cc4n3)c2)c1OCC(=O)O
222 to 223	CCOC(=O)Cc1c(-c2ccccc2)c2cc3c(cc2oc1=O)C(=O)OC3
57 to 58	O=C(Nc1nccs1)C(CC1CCCC1)c1ccc(-c2ccccc2)cc1 (stereo unspecified)
61 to 63	CCCCNc1nc(C)c(C#N)cc1C(=O)OCC
139 to 141	CN(C)C(=NCCN1CCC(C(=O)c2ccc(F)cc2)CC1)NC#N
87 to 89	CCOC(=O)CCCCSc1nc(-c2ccccc2)c(-c2ccccc2)[nH]1
111 to 114	CCCc1nc(N)c(C(=O)OCC)[nH]1
125 to 126	COc1ccc(-n2nnc3ccc(-c4nnc(CCc5cccc(F)c5)o4)cc32)cc1
148	NN(C(=O)c1ccc(Cl)c(S(N)(=O)=O)c1)c1ccc(C(=O)c2ccccc2)cc1[N+](=O)[O-]
140 to 142	COCn1nc(N)c2cc(S(=O)(=O)C(C)C)cc(OCCc3ccccn3)c21
155 to 157	O=c1oc2c(I)cc(I)cc2s1
152 to 154	CON1CCC2(CC1)C(O)=C(c1c(C)cc(C)cc1C)C(=O)N2O
197 to 198	CN(C(=O)c1ccc2nonc2c1)C1CCC(=NO)CC1 (stereo unspecified)
90 to 95	CCC1CCCCN(C(=O)C2Cc3ccccc3N2c2ccc(=O)n(C)n2)C1 (stereo unspecified)
164	O=C(c1ccc(F)cc1)C1CCN(CCn2c(=O)[nH]c3ccccc32)CC1
96 to 97	CCCCOc1c(CO)n(CC2CC2)c(=O)c2ccc(OCc3ccccc3)cc12
281 to 283	CCc1[nH]c2cc(C)c(Oc3ccc(OC(F)(F)F)cc3)cc2c(=O)c1C
139	CCCn1c(C)nn(-c2ccc(N)cc2)c1=O
125 to 130	CN1C(=O)CC[C@]2(C)c3ccc(-c4c(F)cccc4F)cc3CC[C@@H]12
106 to 108	COC(=O)c1ccccc1NC(=O)OCC1CCN(CCNS(C)(=O)=O)CC1

melting point [°C]	Compound
101 to 104	CC1(C)COC(Cc2ccc3c(c2)C(=O)c2ccccc2CO3)=N1
> 300	O=C(O)c1cccc(-c2cc3c(Nc4cccc(Cl)c4)ncnc3[nH]2)c1
83 to 84	CCOC(=O)c1cc(=O)c2cc(OCCC(C)C)ccc2s1
88 to 89	COc1ccc(C2(C#Cc3ccncc3)CCC(=O)CC2)cc1OC1CCCC1
168 to 170	COc1ccc(C(=O)Nc2ccccc2)cc1NCc1cc(C)cc(C)c1
189 to 190	O=S(=O)(NCc1ccc(Cl)cc1)c1cc(Cl)c2cccnc2c1O
135 to 136	Cc1nn(CCC(C)C)c(C)c1CC(=O)O
135	O=c1[nH]c2ccccc2n1CCCN1CCC(O)(c2ccc(F)cc2)CC1
112 to 116	CCOS(=O)(=O)c1ccc(-c2ccc(CCl)cc2)cc1
74 to 77	CC(O)CN1CCCC(c2cccs2)=N1 (stereo unspecified)
144	N#Cc1ccc(NC(=S)NCc2ccccn2)cc1
155 to 156	N#Cc1ccc(N(Cc2ccc(OCc3ccccc3)cc2)n2cnnc2)cc1-c1ccoc1
101 to 102	CCC(=O)Oc1cc2c(s1)CCN(C(C(=O)C1CC1)c1ccccc1F)C2 (stereo unspecified)
195 to 196	O=c1nc(-c2ccccc2)c2cc([N+](=O)[O-])ccc2n1CC(F)(F)F
160 to 163	O=C(O)CCCCCSc1ccc(NS(=O)(=O)c2ccc(Cl)cc2)cc1
182 to 184	O=C1c2ccccc2C(=O)N1CCCC(=O)N1c2ccccc2N(Cc2ccccc2)C(=O)[C@H]2CCC[C@H]21 (relative stereo)
187 to 190	COc1ccc(N2CCN(c3cc4c(cc3-c3ccc(C)cc3)OC(C)(C)C4)CC2)cc1
141 to 142	COC(=O)C(=C1SC=CS1)S(=O)(=O)C(C)C
136	CC(=O)C1C(=O)CC(CCS(=O)(=O)c2ccc(C(F)(F)F)cc2)CC1=O (stereo unspecified)
205 to 206	CC(=O)NN=C(c1ccccc1)c1cc(C(C)(C)C)c(O)c(C(C)(C)C)c1
99 to 107	CC(C)(C)c1cc(CN(c2cccnc2)S(=O)(=O)c2cccc([N+](=O)[O-])c2)cc(C(C)(C)C)c1O
41 to 43	N#CC(CCSC(F)(F)F)S(=O)CCC(F)(F)C(F)(F)F (stereo unspecified)
133 to 135	CCC1Cc2c(Br)cccc2C1O[Si](C)(C)C (stereo unspecified)
174 to 177	CC(C(=O)N(C)c1ccccc1)n1c(-c2ccc(Cl)cc2)nc2cccnc21 (stereo unspecified)
170 to 173	Cc1cc(=O)c(-c2ccc(Oc3ccc(S(C)(=O)=O)cc3)cc2)c(C)o1

melting point [°C]	Compound
158 to 160	Cc1cc(Cc2ccccc2)c(NC(=O)OCc2ccccc2)c(=O)n1CC(=O)O
138 to 140	CCC(Oc1cccc2ccccc12)C(=O)OC1CC(O)C=C2C=CC(C)C(CCC3CC(O)CC(=O)O3)C21 (stereo unspecified)
122 to 123	Cc1ccc2ccc(=O)oc2c1C
254	Cc1cc(-c2cc(C(F)(F)F)n3cnc(-c4ccncc4)c3n2)ccc1Cl
234	CC1=C(C(=O)OCc2ccccc2)C(c2ccccc2Cl)c2c[nH]nc2N1 (stereo unspecified)
153 to 155	CS(=O)(=O)NCCCCCCCCn1cnc2c(N)nc3ccccc3c21
72 to 73	CN1OCCN(c2ccc(Cl)c(C(F)(F)F)c2)C1=O
122	COC(=O)Cc1ccc(OCC(C)NC(C)C(O)c2ccccc2)cc1 (stereo unspecified)
70 to 71	Cc1ccc2cccc(OCC(=O)c3ccccc3)c2n1
74	CCCCN1C(=O)CN(c2ccccc2)C1=O
131 to 133	CNC(=O)CC1(C)OCCn2c1c(C)c1ccccc12 (stereo unspecified)
138 to 140	COc1cc(COc2nn(-c3ccccc3)cc2/C=C/P(=O)(O)O)ccc1OCc1nc(-c2ccco2)oc1C
247 to 249	Cn1c(COc2ccc(C=C3SC(=O)NC3=O)cc2)nc2ccc(Sc3cc(C(C)(C)C)c(O)c(C(C)(C)C)c3)cc21
110 to 112	O=[N+]([O-])c1ccc(F)c(-c2ccncc2)c1F
185 to 189	O=Cc1cccc(-c2nnn[nH]2)c1
77 to 78	COc1ccccc1OCC(O)CN1CCC(=O)CC1 (stereo unspecified)
> 250	CNCC1Cc2cc(-c3ccc(F)cc3)cc(F)c2O1 (stereo unspecified)
100 to 102	CCCCc1c(CO)ccc2c(OC)cccc12
71 to 73	Cc1cc(Cl)nc(C=Cc2ccccc2)n1
97 to 100	S=C(NCc1ccc2c(c1)OCO2)N1CCc2c([nH]c3ccccc23)C1c1ccc2c(c1)OCO2 (stereo unspecified)
246	CCOC(=O)CC1=NN(c2ccc(C(=O)O)cc2)C(=O)C1
235 to 238	COc1ccc(-c2cc3cc(F)c(F)cc3[nH]2)cc1NS(=O)(=O)c1cccc(N)c1
86 to 88	O=C(O)CCC(CCCCNS(=O)(=O)c1ccc(Cl)cc1)CCOc1cccnc1 (stereo unspecified)
67 to 68.5	FC(=C(Cl)Cl)c1ccc(-c2ccccc2)s1
106 to 107	O=[N+]([O-])c1cc(CCl)ccc1Oc1ccc(OCc2ccccc2)cc1

melting point [°C]	Compound
138	N#Cc1c(O)cc(C(F)(F)F)cc1Cl
145 to 146	CCC(CO)(CO)NC(=O)Nc1ccccc1CCc1cc(C(C)(C)C)c(O)c(C(C)(C)C)c1
101	COc1ccc2c(c1)[C@H]1Cc3ccccc3[C@H]1N2 (relative stereo)
217 to 218	COc1cc2ncnc(N3CCN(C(=S)NCc4ccc(Br)cc4)CC3)c2cc1OC
196 to 197	O=C1N(Cc2ccc(OCCO)cc2)c2ccccc2C12COc1cc3c(cc12)OCCO3 (stereo unspecified)
145 to 146	CNC(=O)C(C)(C)C(O)(Cn1cncn1)c1ccc(Cl)cc1Cl (stereo unspecified)
180 to 181	CC(CO)CCCC(C)C1CC=C2C3=C(CCC21C)C1(C)CCC(O)C(C)(C)C1CC3 (stereo unspecified)
110	COc1ccc(C(O)CN2CCNC2=S)cc1 (stereo unspecified)
89 to 92	CCCOc1ccc(-c2ccc(-c3ccccc3Cl)n2Cc2ccc(OCCO)c(N)n2)cc1
149 to 151	CCCN(CCC)CC1CCCCN1CCNC(=O)N1c2ccccc2NC(=O)c2cccnc21 (stereo unspecified)
208 to 210	CCN(CC)CCNC(=O)c1cccc2c(=O)c3ccc(I)cc3[nH]c12
182	COc1ccc(CN(C)CCc2ccc(NC(=O)c3cccc4c(=O)c5ccccc5n(C)c34)cc2)cc1OC
89 to 90	CC[C@H](C)[C@H](OCc1ccccc1)[C@@H]1[C@H]([N+](=O)[O-])[C@H](c2ccccc2)N[C@]1(C)C(=O)NCC(=O)O
70 to 80	CN1C(=O)CC[C@]2(C)c3ccc(-c4ccc([N+](=O)[O-])cn4)cc3CC[C@@H]12
130 to 131	Cc1cc(Nc2ccnc(Cl)n2)ccc1F
163	CCCCC(=O)Nc1c(N)ccnc1Cl
130 to 132	CC(C)(OCc1cc2cc(C(F)(F)F)ccc2n1S(=O)(=O)c1ccc2c(c1)OCO2)C(=O)O
88 to 90	C#CCn1ccc(C(=O)OC)c1C=NO
235 to 240	CC(=O)Nc1ccc(C=CC2=NNC(=O)SC2)cc1
108 to 112	OC1CC=C(c2ccc(Cl)cc2)CC1 (stereo unspecified)
89 to 90	N#Cc1ncc(Cl)nc1C#N
184	N#CSc1cc(C(=O)O)cc([N+](=O)[O-])c1C(=O)c1ccccc1
122 to 123	Cc1nc(Sc2cc(C(F)(F)F)ccn2)sc1CC(=O)O
205 to 207	CC(=O)Nc1ccc(CSc2ccc(CC(=O)O)cc2)c(C(=O)O)c1

Compound	melting point [°C]
COC(=O)C1=C(C(=O)OC)C2OC1c1cc3c(cc12)OCO3	117 to 119
CCC(O)C#Cc1ncn2c1CN(C)C(=O)c1c(Cl)cccc1-2 (stereo unspecified)	178
